Several values for one entry are separate records, joined by “and”; a condition that tells them apart may be missing. Identical values can stand only once.
Columns and labels:
[1] = molecular target: T1, Protein farnesyltransferase (Homo sapiens) (UniProt P49354+P49356); assay: Percent inhibition of [3H]FPP incorporation into H-ras CVLS by farnesyltransferase at 0.4 uM; format: protein-complex assay
[2] = Inhibition of [3H]-FPP incorporation into H-ras CVLS by farnesyltransferase
[3] = molecular target: T1, Protein farnesyltransferase (Homo sapiens); assay: Percent inhibition of [3H]FPP incorporation into H-ras CVLS by farnesyltransferase at 1.1 uM; format: protein-complex assay
[4] = molecular target: T1, Protein farnesyltransferase (Homo sapiens); assay: Inhibition of [3H]FPP incorporation into H-ras CVLS by farnesyltransferase; format: protein-complex assay

inhibition [3]	Structure (SMILES)	IC50 [2]	further results
–	O=C(NCc1cccnc1)[C@H]1CCCCN1C1c2ccc(Cl)cc2CCc2cc(Br)cnc21 (stereo partly specified)	–	inhibition [1]: 0.4% and 11%
–	O=C(NCCCn1ccnc1)[C@@H]1CCCCN1C1c2ncc(Br)cc2CCc2cc(Cl)cc(Br)c21 (stereo partly specified)	0.9 nM and 0.4 nM	–
–	NC(=O)N1CCC(CC(=O)N2CCC([C@H]3c4ncc(Br)cc4CCc4cc(Cl)cc(Br)c43)CC2)CC1 [LONAFARNIB]	2 nM	–
18% and 27%	O=C(NCc1ccncc1)[C@H]1CCCCN1C1c2ccc(Cl)cc2CCc2cc(Br)cnc21 (stereo partly specified)	–	–
0% and 13%	O=C(NCc1ccncc1)[C@@H]1CCCCN1C1c2ccc(Cl)cc2CCc2cc(Br)cnc21 (stereo partly specified)	–	–
–	O=C(NCc1cccnc1)[C@@H]1CCCCN1C1c2ccc(Cl)cc2CCc2cc(Br)cnc21 (stereo partly specified)	–	Inhibitory activity [4]: 0.3 µM and 0.16 µM

Source: ChEMBL document CHEMBL1138704, “Farnesyl protein transferase inhibitors targeting the catalytic zinc for enhanced binding” (Bioorg Med Chem Lett, 2004)
